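Method: 48-hour compound exposure of cells in 96-well plates, five concentrations, linear interpolation of endpoints. At the GI50, growth is halved. TGI marks complete inhibition of growth.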
What was measured:
Experiment in all cases: NCI-60 cell line screen, 48 h
A498 renal = tested on: A498 renal
CAKI-1 renal = tested on: CAKI-1 renal
COLO 205 colon = tested on: COLO 205 colon
IGROV1 ovarian = tested on: IGROV1 ovarian
K-562 leukemia = tested on: K-562 leukemia
KM12 colon = tested on: KM12 colon
M14 melanoma = tested on: M14 melanoma
SK-MEL-2 melanoma = tested on: SK-MEL-2 melanoma
SNB-75 CNS = tested on: SNB-75 CNS
SR leukemia = tested on: SR leukemia

| SMILES | GI50 (A498 renal) | TGI (A498 renal) | GI50 (CAKI-1 renal) | TGI (CAKI-1 renal) | GI50 (COLO 205 colon) | TGI (COLO 205 colon) | GI50 (IGROV1 ovarian) | TGI (IGROV1 ovarian) | GI50 (K-562 leukemia) | TGI (K-562 leukemia) | GI50 (KM12 colon) | TGI (KM12 colon) | GI50 (M14 melanoma) | TGI (M14 melanoma) | GI50 (SK-MEL-2 melanoma) | TGI (SK-MEL-2 melanoma) | GI50 (SNB-75 CNS) | TGI (SNB-75 CNS) | GI50 (SR leukemia) | TGI (SR leukemia) |
| --- | --- | --- | --- | --- | --- | --- | --- | --- | --- | --- | --- | --- | --- | --- | --- | --- | --- | --- | --- | --- |
| O=C(c1ccccc1)c1c(NCC(O)CN2CCCC2)n(Cc2ccccc2)c(=O)n(Cc2ccccc2)c1=O (stereo unspecified) | 2.3 µM | 12.7 µM | 24.3 µM | 59 µM | 16.2 µM | 31.2 µM | 21.6 µM | 52.8 µM | 23.9 µM | 99.1 µM | 15.8 µM | 31.7 µM | 17.5 µM | 33.9 µM | 20.5 µM | 39 µM | 16.9 µM | 47.3 µM | – | – |
| CC(=O)N1CCN(C2=Nc3ccccc3CO2)C1=S | – | – | > 100 µM | > 100 µM | > 100 µM | > 100 µM | 18.3 µM | 58.1 µM | 46.5 µM | > 100 µM | > 100 µM | > 100 µM | 51.3 µM | > 100 µM | – | – | 40.1 µM | > 100 µM | 29.3 µM | 68.4 µM |
| O=C(c1ccc2ccccc2c1O)N1CCCCC1 | – | > 100 µM | – | > 100 µM | – | > 100 µM | – | > 100 µM | – | 75.3 µM | – | > 100 µM | – | > 100 µM | – | > 100 µM | – | > 100 µM | – | – |
| O=P([O-])(O)OP(=O)([O-])O.[NH-][C@H]1CCCC[C@@H]1[NH-].[OH-].[OH-].[Pt+4] | 21.1 µM | 39.9 µM | 34.4 µM | > 100 µM | 88.2 µM | > 100 µM | 21.8 µM | 60.4 µM | 92.9 µM | > 100 µM | > 100 µM | > 100 µM | 40.3 µM | > 100 µM | – | – | 20.4 µM | 41 µM | – | – |
| Cc1ccc(C)c(NC(=O)C(=O)CC(=O)C2CCOC2=O)c1 (stereo unspecified) | – | > 100 µM | – | > 100 µM | – | > 100 µM | – | > 100 µM | – | > 100 µM | – | > 100 µM | – | > 100 µM | – | > 100 µM | – | > 100 µM | – | – |
| C=CC(=O)Nc1ccc(Nc2nccc(-c3ccc(N4CCCC4)c(C#N)c3)n2)cc1 | 4.82 µM | 24.9 µM | 4.6 µM | > 25 µM | > 25 µM | > 25 µM | 1.85 µM | > 25 µM | 5.94 µM | > 25 µM | > 25 µM | > 25 µM | 22.8 µM | > 25 µM | 22.7 µM | > 25 µM | 3.37 µM | > 25 µM | – | – |
| COc1c2c(c3c(c1C1OC(C)[C@@H](C)O1)CC(C)(C)O3)C(=O)c1ccccc1C2=O (stereo partly specified) | – | – | – | > 100 µM | – | > 100 µM | – | > 100 µM | – | > 100 µM | – | > 100 µM | – | > 100 µM | – | > 100 µM | – | > 100 µM | – | 68.2 µM |
| Cc1ccc(C(=O)O/N=C2/CCCC/C2=C\c2ccccc2)cc1 | – | – | – | > 100 µM | – | > 100 µM | – | > 100 µM | – | 38.6 µM | – | > 100 µM | – | > 100 µM | – | > 100 µM | – | > 100 µM | – | > 100 µM |
| CC(C)=CCN=C(N)N | – | – | – | > 100 µM | – | > 100 µM | – | > 100 µM | – | – | – | > 100 µM | – | – | – | > 100 µM | – | – | – | 83.6 µM |
| C1=C(c2ccccc2)CN(c2ccccc2)OC1 | – | – | – | > 100 µM | – | > 100 µM | – | > 100 µM | – | > 100 µM | – | > 100 µM | – | > 100 µM | – | > 100 µM | – | > 100 µM | – | > 100 µM |
| CC1=NN(C(=O)c2ccccc2O)C(=O)/C1=C/c1ccc([N+](=O)[O-])cc1 | – | – | 0.549 µM | > 30.8 µM | 7.43 µM | > 88 µM | 0.44 µM | – | 0.216 µM | – | 0.779 µM | > 100 µM | 3.01 µM | 40.7 µM | 0.97 µM | – | 0.0532 µM | > 100 µM | 5.04 µM | – |
| COc1ccc(S(=O)(=O)NC(C)C(=O)O)cc1 (stereo unspecified) | – | > 100 µM | – | > 100 µM | – | > 100 µM | – | > 100 µM | – | > 100 µM | – | > 100 µM | – | > 100 µM | – | > 100 µM | – | > 100 µM | – | – |
| COc1ccc(/C=C2\CN(C)Cc3c2nc(N)nc3-c2ccc(OC)cc2)cc1 | – | > 100 µM | – | > 100 µM | – | > 100 µM | – | > 100 µM | – | > 100 µM | – | > 100 µM | – | > 100 µM | – | > 100 µM | – | > 100 µM | – | – |
| O=C(/C=C/c1ccc(B(O)O)cc1)/C=C/c1ccc(B(O)O)cc1 | 2.34 µM | 10.3 µM | 6.22 µM | 19.2 µM | 2.21 µM | 4.83 µM | 3.46 µM | 13.3 µM | 3.1 µM | > 100 µM | 1.66 µM | 3.23 µM | 2.23 µM | 5.9 µM | 16 µM | 40.9 µM | 3.48 µM | 14.9 µM | – | – |
| C#CCC[C@@H]1O[C@@]1(C)CC/C=C(\C)CC/C=C/C=O | – | – | – | – | – | > 100 µM | – | 49.6 µM | – | 54 µM | – | > 100 µM | – | 48.3 µM | – | > 100 µM | – | > 100 µM | – | > 100 µM |
| CC1CC2C3CC(F)C4=CC(=O)C=CC4(C)C3(F)C(O)CC2(C)C1(O)C(=O)COC(=O)C(C)(C)C (stereo unspecified) | – | – | – | > 100 µM | – | > 100 µM | – | > 100 µM | – | > 100 µM | – | > 100 µM | – | > 100 µM | – | > 100 µM | – | > 100 µM | – | > 100 µM |
| COc1cc(CCc2cccnc2)cc(OC)c1OC | – | > 100 µM | – | > 100 µM | – | > 100 µM | – | > 100 µM | – | > 100 µM | – | > 100 µM | – | > 100 µM | – | – | – | > 100 µM | – | – |
| Cc1cccc(C(=O)c2cccc3ccccc23)c1C(=O)O | – | > 100 µM | – | – | – | 80 µM | – | > 100 µM | – | > 100 µM | – | – | – | > 100 µM | – | > 100 µM | – | > 100 µM | – | – |
| O=C1OC(=O)c2c1c(-c1ccccc1)cn2-c1ccc(Cl)cc1 | – | – | – | – | – | 37.5 µM | – | > 100 µM | – | > 100 µM | – | > 100 µM | – | > 100 µM | – | > 100 µM | – | > 100 µM | – | > 100 µM |
| C=C(Cn1c(=O)c2ccccc2c2ccccc21)c1ccc(C(=O)Nc2ccccc2N)cc1 | 30.6 µM | > 100 µM | 23.3 µM | > 100 µM | 45.1 µM | > 100 µM | 1.36 µM | > 29 µM | 0.781 µM | – | 25.6 µM | > 100 µM | > 19.8 µM | > 100 µM | > 86.3 µM | > 100 µM | 4.41 µM | > 94.4 µM | – | – |
